We go through 2 substances from patent US20240189490A1, “ANTIMICROBIAL ELUTING AIRWAY DEVICES” (priority 2021, published 2024).

No end group written: not given here.

Data set [1] in a line: Release of loaded protein or peptide from coated ET tubes in PBS. Type of data set: physicochemical. As to the method: Release Quantification. Release of loaded protein or peptide from ET tubes was achieved from quartered tube segments in PBS at 37° C. while shaking at 100 rpm. FITC-BSA elution and PLGA degradation samples were obtained by completely removing the supernatant and adding fresh PBS to each well. […] PLGA degradation was quantified via EnzyFluo L-Lactate Assay Kit (Bioassay Systems). Peptide release was quantified via Pierce Quantitative Fluorometric Peptide Assay (Thermo Scientific).

The test system of data set [2] is S. epidermidis. Briefly: Minimum inhibitory concentration (MIC) of Lasio. Type of data set: cell-based, Staphylococcus epidermidis. Also noted: unit not given here. As to conditions: data not shown. As to the method:
(§1) Bacteria Culture. Staphylococcus epidermidis (Winslow and Winslow) Evans (ATCC 13990) was cultured in nutrient broth aerobically at 37° C. Streptococcus pneumoniae (Klein) Chester (NCTC 7465; ATCC 33400) was cultured in Brain Heart Infusion Broth and plated on Trypticase soy agar with 5% defibrinated sheep blood (Colorado Serum Co.) aerobically (5% CO2) at 37° C.
(§2) Antibacterial Activity Assay.

Data set [3] has as its system patient derived laryngotracheal fibroblasts.
Procedure: Peptide/PLGA coated tubes and controls were first submerged in Fluorobrite DMEM supplemented with 10% FBS, 2% Anti-Anti, 1% MEM NEAA, and incubated for 24 hours at 37° ° C. while shaking at 100 rpm to achieve release. Simultaneously, laryngotracheal fibroblasts were seeded at 7,000 cells/well in 48 well plates and allowed to adhere overnight in a culture atmosphere at 37° C., 95% relative humidity, and 5% CO2. Cell media was replaced with appropriate tube releasate and incubated for 24 hours in the culture atmosphere. Invitrogen AlamarBlue HS Cell Viability Reagent (ThermoFisher Scientific) was used to quantify viability.
For data set [4], the system named is Staphylococcus epidermidis. Briefly: Crystal violet biofilm assay on ET tubes. Type of data set: cell-based. Particulars: 24 hours, 1×MIC/PLGA vs uncoated, 0.5×MIC/PLGA, free peptide vs 1×MIC/PLGA p<0.0001. The method, then:
as §1, §2

The test system of data set [5] is Staphylococcus epidermidis. Briefly: Adherent bacterial viability on ET tubes (colony counts). Type of data set: cell-based. Particulars: 24 hours, 1×MIC/PLGA vs uncoated, 0.5×MIC/PLGA p<0.0001, free peptide vs 1×MIC/PLGA p=0.0015. The method, then:
as §1, §2

In turn, A4K14-citropin 1.1 came in with a linear release rate in data set [1] (mouse sized tube loaded with 17.04 μg peptide, over 9 days) of 0.397 µg/day. Further, in data set [1] (mouse sized tube, by day 9), the encapsulated peptide released is ~80%.

The substance “VNWKKILGKIIKVVK-NH2 (C-terminus assumed) [Lasio, Lasioglossin-III]” gave a viability of 62.3%. This substance also displayed a minimum inhibitory concentration in data set [2] of 1.25. Besides, the “cytotoxicity toward human patient-derived laryngotracheal fibroblasts” value in data set [3] is “not cytotoxic”. Moreover, in data set [4], the “adherent bacterial populations (crystal violet biofilm assay)” value was “significant reduction in adherent bacteria”. In addition, in data set [5], the “viability of adherent bacteria” value is listed as “inhibited the viability of adherent bacteria”. In data set [1] (from PLGA coated ET tubes, PBS at 37° C. shaking at 100 rpm, after initial burst release), this substance showed a linear release of 0.28 µg/day.

The term viability denotes the share of living cells, or the viability signal relative to a control.
